The source of these data is patent US7893074B2, “2, 4-pyrimidinediamines useful in the treatment of neoplastic diseases, inflammatory and immune system disorders” (Novartis AG, priority 2003, dated 2011).

Like-named read-outs stand apart in the source and are kept apart here.

The target of assay [1] is Focal Adhesion Kinase (FAK) (Homo sapiens, UniProt Q05397). The assay is described as follows: FAK assay system (Focal Adhesion Kinase inhibition). It is filed as biochemical. As to conditions: read-out: FAK IC50.
Sequence of Focal Adhesion Kinase (FAK) (Q05397 384-706): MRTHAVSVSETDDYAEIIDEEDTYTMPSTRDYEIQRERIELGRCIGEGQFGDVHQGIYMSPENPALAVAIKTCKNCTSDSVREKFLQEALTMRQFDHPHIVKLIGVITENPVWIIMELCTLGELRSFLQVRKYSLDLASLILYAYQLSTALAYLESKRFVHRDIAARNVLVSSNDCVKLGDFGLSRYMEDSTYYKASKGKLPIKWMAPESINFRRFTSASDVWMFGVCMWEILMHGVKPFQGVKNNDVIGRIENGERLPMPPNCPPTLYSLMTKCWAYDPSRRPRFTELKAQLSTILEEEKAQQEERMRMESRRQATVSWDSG
Assay [2] deals with Mouse mammary carcinoma 4T1 cells. Briefly: Anchorage-independent tumor cell growth assay. It is filed as cell-based. As for the experimental part: Cells are cultured for 2 h and inhibitors are added at various concentrations in a final concentration of 0.1% DMSO. After 48 h, cell growth is assayed with the cell counting kit-8 (Wako Pure Chemical), which uses a water soluble tetrazolium salt WST8. Twenty μL of the reagent is added into each well and cells are further cultured for 2 h. The optical density is measured at 450 nm.

For a further assay, the target named is FAK (Mus musculus, UniProt P34152). The assay is described as follows: Phos IC50 (phosphorylation). It is filed as cell-based.
Sequence of FAK (P34152 2-1052): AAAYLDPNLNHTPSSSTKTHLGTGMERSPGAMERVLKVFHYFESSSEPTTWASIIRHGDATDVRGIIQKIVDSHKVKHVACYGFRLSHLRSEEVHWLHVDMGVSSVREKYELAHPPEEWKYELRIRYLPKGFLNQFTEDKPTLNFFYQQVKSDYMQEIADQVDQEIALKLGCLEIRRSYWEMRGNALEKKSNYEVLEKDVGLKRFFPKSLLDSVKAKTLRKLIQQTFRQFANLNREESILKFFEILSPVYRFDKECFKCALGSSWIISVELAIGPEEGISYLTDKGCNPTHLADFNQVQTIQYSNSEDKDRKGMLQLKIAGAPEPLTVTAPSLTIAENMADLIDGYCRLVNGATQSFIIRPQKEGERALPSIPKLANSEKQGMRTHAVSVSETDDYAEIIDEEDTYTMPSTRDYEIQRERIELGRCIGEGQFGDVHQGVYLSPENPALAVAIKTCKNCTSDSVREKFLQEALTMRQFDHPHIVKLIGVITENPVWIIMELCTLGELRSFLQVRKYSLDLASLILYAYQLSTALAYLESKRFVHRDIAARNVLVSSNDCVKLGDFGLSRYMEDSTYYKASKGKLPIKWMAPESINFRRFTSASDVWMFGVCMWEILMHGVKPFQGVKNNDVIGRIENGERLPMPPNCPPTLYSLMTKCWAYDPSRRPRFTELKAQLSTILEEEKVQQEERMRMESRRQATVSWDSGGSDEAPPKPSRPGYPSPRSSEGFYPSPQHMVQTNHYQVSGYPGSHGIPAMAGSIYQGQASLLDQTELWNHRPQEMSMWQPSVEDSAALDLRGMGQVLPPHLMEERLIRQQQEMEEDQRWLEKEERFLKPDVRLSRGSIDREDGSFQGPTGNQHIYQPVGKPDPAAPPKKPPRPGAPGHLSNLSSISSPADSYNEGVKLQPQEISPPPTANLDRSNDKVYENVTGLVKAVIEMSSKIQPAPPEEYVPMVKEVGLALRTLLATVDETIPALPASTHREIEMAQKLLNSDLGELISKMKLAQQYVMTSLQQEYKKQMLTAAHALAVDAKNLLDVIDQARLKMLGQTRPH

Consider `COc1cc(NCC(C)(C)CO)ccc1Nc1ncc(Cl)c(Nc2ccccc2S(=O)(=O)NC(C)C)n1` [Example 19-22], for which the IC50 in assay [1] was 3.4 nM; in assay [2] (Mus musculus, 4T1) it was 510 nM; against FAK it was 120 nM.
As for `COc1cc(NC(C)(C)CO)ccc1Nc1ncc(Cl)c(Nc2ccccc2S(=O)(=O)NC(C)C)n1` [Example 19-23], the IC50 was determined as 6.4 nM in assay [1]; 710 nM in assay [2] (Mus musculus, 4T1); 700 nM against FAK.
Regarding `CC(C)NS(=O)(=O)c1ccccc1Nc1nc(Nc2ccc(OCCN3CCOCC3)cc2F)ncc1Cl` [Example 19-26], the IC50 in assay [1] is 6.1 nM; in assay [2] (Mus musculus, 4T1) it was 300 nM; against FAK it was 100 nM.
`COc1cc(N2CCC(N3CCCCC3)CC2)ccc1Nc1ncc(Cl)c(Nc2ccccc2S(=O)(=O)NC(C)C)n1` [Example 19-27]: the IC50 in assay [1] was determined as 1.5 nM; in assay [2] (Mus musculus, 4T1), 400 nM; on FAK it was 300 nM.
For the molecule `COc1cc(OCCN2CCN(C)CC2)ccc1Nc1ncc(Cl)c(Nc2ccccc2S(=O)(=O)NC(C)C)n1` [Example 19-30], the IC50 is less than 1 nM in assay [1]; 100 nM in assay [2] (Mus musculus, 4T1); 60 nM at FAK.
For `COc1cc(N2CCN3CCOC[C@H]3C2)ccc1Nc1ncc(Cl)c(Nc2ccccc2S(=O)(=O)NC(C)C)n1` [Example 19-31] the same measures were 1.8 nM, 380 nM and 400 nM.
On to `COc1cc(NC2CCN(C)CC2)ccc1Nc1ncc(Cl)c(Nc2ccccc2S(=O)(=O)NC(C)C)n1` [Example 19-32], for which the IC50 is 1.4 nM in assay [1]; 310 nM in assay [2] (Mus musculus, 4T1); 200 nM against FAK.
The corresponding values for `CNS(=O)(=O)c1ccccc1Nc1nc(Nc2ccccc2OC(F)F)ncc1Cl` [Example 20-4] are 23 nM, 1900 nM and 580 nM.
`CNS(=O)(=O)c1ccccc1Nc1nc(Nc2ccc(N3CCC(NC(C)=O)C3)cc2OC)ncc1Cl` (stereo not drawn) [Example 20-5]: the IC50 in assay [1] stood at 6.8 nM; in assay [2] (Mus musculus, 4T1), 1460 nM; at FAK, 870 nM.
Consider `CNS(=O)(=O)c1ccccc1Nc1nc(Nc2cccc3c2ccn3CCCN2CCN(C)CC2)ncc1Cl` [Example 20-9], for which the 50% inhibitory concentration (IC50) was determined as 2 nM in assay [1]; 10 nM in assay [2] (Mus musculus, 4T1); 300 nM against FAK.
For the molecule `CNS(=O)(=O)c1ccccc1Nc1nc(Nc2cccc3c2ccn3CCCN2CCOCC2)ncc1Cl` [Example 20-10], the 50% inhibitory concentration (IC50) in assay [1] is 2 nM; in assay [2] (Mus musculus, 4T1), 20 nM; at FAK it was 100 nM.
The corresponding values for `CNS(=O)(=O)c1ccccc1Nc1nc(Nc2cc(N3CCOCC3)ccc2OC)ncc1Cl` [Example 20-11] are 26 nM, 400 nM and 2000 nM.
As for `CNS(=O)(=O)c1ccccc1Nc1nc(Nc2ccc(N3CCCC(C(N)=O)C3)cc2OC)ncc1Cl` (stereo not drawn) [Example 20-15], the half-maximal inhibitory concentration (IC50) in assay [1] came out at 14 nM; in assay [2] it was 970 nM; against FAK, 400 nM.
Regarding `CNS(=O)(=O)c1ccccc1Nc1nc(Nc2cc(OCCN3CCOCC3)ccc2OC)ncc1Cl` [Example 20-21], the half-maximal inhibitory concentration (IC50) in assay [1] is 26 nM; in assay [2] (Mus musculus, 4T1) it was 680 nM; on FAK it was 3000 nM.
As for `CNS(=O)(=O)c1ccccc1Nc1nc(Nc2cc(OCCN3CCN(C)CC3)ccc2OC)ncc1Cl` [Example 20-22], the IC50 is 8 nM in assay [1]; 190 nM in assay [2] (Mus musculus, 4T1); more than 10000 nM against FAK.
Regarding `CNS(=O)(=O)c1ccccc1Nc1nc(Nc2cc(F)ccc2OC)ncc1Cl` [Example 20-23], the half-maximal inhibitory concentration (IC50) in assay [1] amounted to 30 nM; in assay [2] (Mus musculus, 4T1) it was 3000 nM; at FAK it was 490 nM.
Take `CNS(=O)(=O)c1ccccc1Nc1nc(Nc2ccc(F)cc2OC)ncc1Cl` [Example 20-24]: the IC50 worked out at 19 nM in assay [1]; 2000 nM in assay [2] (Mus musculus, 4T1); 480 nM on FAK.
For `CNS(=O)(=O)c1ccccc1Nc1nc(Nc2ccc(OCC3CCN(C)CC3)cc2OC)ncc1Cl` [Example 20-25] the same measures were 6.2 nM, 60 nM and 210 nM.
The corresponding values for `CNS(=O)(=O)c1ccccc1Nc1nc(Nc2cc(OCC3CCN(C)CC3)ccc2OC)ncc1Cl` [Example 20-26] are 5.3 nM, 270 nM and 760 nM.
The corresponding values for `CNS(=O)(=O)c1ccccc1Nc1nc(Nc2cc(N3CCN(C(C)=O)CC3)ccc2OC)ncc1Cl` [Example 20-34] are 13 nM, 120 nM and 1000 nM.
For the molecule `CCC(C)NS(=O)(=O)c1ccccc1Nc1nc(Nc2ccc(N3CCN(C)CC3)cc2OC)ncc1Cl` (stereo not drawn) [Example 21-1], the figures for the IC50 (in assay [1]; in assay [2]; on FAK) were 1 nM, 190 nM and 70 nM, respectively.
In the case of `CCC(C)NS(=O)(=O)c1ccccc1Nc1nc(Nc2ccc(F)cc2OC)ncc1Cl` (stereo not drawn) [Example 21-2], the 50% inhibitory concentration (IC50) is 8.5 nM in assay [1]; more than 10000 nM in assay [2] (Mus musculus, 4T1); 330 nM on FAK.
For `CCC(C)NS(=O)(=O)c1ccccc1Nc1nc(Nc2ccc(OC3CCN(C)CC3)cc2OC)ncc1Cl` (stereo not drawn) [Example 21-3] the same measures were 1.7 nM, 300 nM and 300 nM.
For `CCC(C)NS(=O)(=O)c1ccccc1Nc1nc(Nc2ccc(OCCN3CCOCC3)cc2OC)ncc1Cl` (stereo not drawn) [Example 21-4] the same measures were 1.8 nM, 300 nM and 50 nM.
The corresponding values for `COc1ccc(F)cc1Nc1ncc(Cl)c(Nc2ccccc2S(=O)(=O)NCC(C)C)n1` [Example 22-1] are 43 nM, more than 10000 nM and more than 10000 nM.
Turning to `COc1cc(F)ccc1Nc1ncc(Cl)c(Nc2ccccc2S(=O)(=O)NCC(C)C)n1` [Example 22-2], the concentration for half-maximal inhibition (IC50) in assay [1] stood at 26 nM; in assay [2] (Mus musculus, 4T1), 3000 nM; on FAK, 1000 nM.
For `CCC(CC)NS(=O)(=O)c1ccccc1Nc1nc(Nc2ccc(OCC3CCCN(C)C3)cc2OC)ncc1Cl` (stereo not drawn) [Example 23-5] the same measures were 1.9 nM, 590 nM and more than 10000 nM.
For `CCC(CC)NS(=O)(=O)c1ccccc1Nc1nc(Nc2ccc(N3CCOCC3)cc2OC)ncc1Cl` [Example 23-6] the same measures were 16 nM, 570 nM and 1000 nM.
In the case of `CCC(CC)NS(=O)(=O)c1ccccc1Nc1nc(Nc2ccc(OCCN3CCOCC3)cc2OC)ncc1Cl` [Example 23-8], the IC50 came to 6.7 nM in assay [1]; 490 nM in assay [2] (Mus musculus, 4T1); 300 nM at FAK.
For `CCC(CC)NS(=O)(=O)c1ccccc1Nc1nc(Nc2ccc(OCCN3CCN(C)CC3)cc2OC)ncc1Cl` [Example 23-9] the same measures were 2.1 nM, 280 nM and 200 nM.
The corresponding values for `COc1cc(N2CCC(NC(C)=O)C2)ccc1Nc1ncc(Cl)c(Nc2ccccc2S(=O)(=O)NC2CCC2)n1` (stereo not drawn) [Example 24-3] are 1 nM, 1080 nM and 300 nM.
With `CCCS(=O)(=O)c1ccccc1Nc1nc(Nc2ccc(N3CC(C)N(C(C)=O)C(C)C3)cc2OC)ncc1Cl` (stereo not drawn) [Example 26-7], the half-inhibitory concentration (IC50) is 11 nM in assay [1]; 950 nM in assay [2] (Mus musculus, 4T1); 500 nM against FAK.
As for `CCCS(=O)(=O)c1ccccc1Nc1nc(Nc2ccc(N3CCN(C(=O)CC)CC3)cc2OC)ncc1Cl` [Example 26-8], the half-maximal inhibitory concentration (IC50) in assay [1] was determined as 2.9 nM; in assay [2] (Mus musculus, 4T1), 180 nM; against FAK, 10 nM.
The corresponding values for `CCCS(=O)(=O)c1ccccc1Nc1nc(Nc2ccc(N3CCN(C(=O)C(C)C)CC3)cc2OC)ncc1Cl` [Example 26-9] are 2.3 nM, 220 nM and 40 nM.
On to `CCCS(=O)(=O)c1ccccc1Nc1nc(Nc2ccc(N3CCC[C@H](C(N)=O)C3)cc2OC)ncc1Cl` [Example 26-12], for which the 50% inhibitory concentration (IC50) in assay [1] was 3.7 nM; in assay [2] (Mus musculus, 4T1) it was 190 nM; against FAK, 200 nM.
The corresponding values for `CCCS(=O)(=O)c1ccccc1Nc1nc(Nc2ccc(N3CCC[C@@H](C(N)=O)C3)cc2OC)ncc1Cl` [Example 26-13] are 1.6 nM, 440 nM and 200 nM.
The corresponding values for `CCCS(=O)(=O)c1ccccc1Nc1nc(Nc2ccc(NCCN3CCOCC3)cc2OC)ncc1Cl` [Example 26-16] are 9 nM, 2000 nM and 320 nM.
Turning to `CCCS(=O)(=O)c1ccccc1Nc1nc(Nc2ccc(OCCN3CCCC3=O)cc2OC)ncc1Cl` [Example 26-18], the IC50 in assay [1] is 1.3 nM; in assay [2] it was 1170 nM; against FAK, 6000 nM.
For the molecule `CCCS(=O)(=O)c1ccccc1Nc1nc(Nc2ccc(C(=O)N3CCN(C(C)=O)CC3)cc2OC)ncc1Cl` [Example 26-19], the IC50 turned out to be 9.2 nM in assay [1]; 790 nM in assay [2] (Mus musculus, 4T1); 430 nM against FAK.
With `CCCS(=O)(=O)c1ccccc1Nc1nc(Nc2ccc(N3CCNC(=O)C3)cc2OC)ncc1Cl` [Example 26-22], the values for the half-maximal inhibitory concentration (IC50) (in assay [1]; in assay [2]; against FAK) were less than 1 nM, 280 nM and 100 nM, respectively.
Turning to `CCCS(=O)(=O)c1ccccc1Nc1nc(Nc2ccc(N3CCC(NC)C3)cc2OC)ncc1Cl` (stereo not drawn) [Example 26-25], the IC50 was less than 1 nM in assay [1], 730 nM in assay [2] and 600 nM on FAK.
The corresponding values for `CCCS(=O)(=O)c1ccccc1Nc1nc(Nc2ccc(N3CCC(CO)CC3)cc2OC)ncc1Cl` [Example 26-27] are 4.8 nM, 1490 nM and 600 nM.
Take `CCCS(=O)(=O)c1ccccc1Nc1nc(Nc2ccc(N3CCC(O)C3)cc2OC)ncc1Cl` (stereo not drawn) [Example 26-28]: the concentration for half-maximal inhibition (IC50) turned out to be 2.1 nM in assay [1], 1520 nM in assay [2] and 500 nM against FAK.

The IC50 is the concentration needed to halve the response being measured.
